Legend:
HdhQ150 mRNA = assay: QSI treatment of ES cells hemizygous for HdhQ150, Hdh mRNA by quantitative real time PCR; type: cell-based, mouse; details: ES cells hemizygous for HdhQ150, QSI for six hours, high glutamine (1.2 grams/ml), FIG. 2C
Experimental: (§1) ES cell lines hemizygous for HdhQ150 were treated with an inhibitor of the glutaminyl-tRNA synthetase, QSI (5′-O-[N-(L-glutaminyl)sulfamoyl]adenosine) for six hours in the presence of high levels of glutamine. […] In this case the long CAG repeat is used to represent a rare cluster of codons. This diminishment in disease allele expression was accomplished in the presence of high amounts of glutamine (1.2 grams/ml) showing that reduction of expression can be attained by inhibition of a tRNA synthetase while providing normal amounts of the amino acid which is a substrate for the synthetase reaction. […]
(§2) Since the quantitative real time PCR (QRTPCR) assay (described below) cannot distinguish between different alleles of Hdh it is necessary that the ES cells only express a single allele. […] These engineered ES cells express only the long repeat version of Hdh and lack wild type Hdh mRNA as determined by RT-PCR across the repeat region.
(§3) Finally, a quantitative real time PCR (QRTPCR) assays has been developed for both Hprt and Hdh mRNA. […] During the PCR reaction the polymerase destroys the oligo releasing the […] to allow fluorescence. Fluorescence is measured though every cycle and the point when it increases beyond threshold is logarithmically related to the amount of starting RNA. […]

wild type Hdh mRNA = assay: QSI treatment of control ES cells expressing a single wild type Hdh allele, Hdh mRNA by quantitative real time PCR; type: cell-based, mouse; details: QSI for six hours, high glutamine, FIG. 2C
Experimental: as §1, §2, §3

## NC(=O)CC[C@H](N)C(=O)NS(=O)(=O)OC[C@H]1O[C@@H](n2cnc3c(N)ncnc32)[C@H](O)[C@@H]1O [QSI, 5′-O-[N-(L-glutaminyl)sulfamoyl]adenosine]
HdhQ150 mRNA
  HdhQ150 mRNA levels: lowered by QSI treatment in a dose dependent manner
Wild type Hdh mRNA
  wild type Hdh mRNA levels: effect of QSI in lowering Hdh mRNA levels was dependent on the presence of the long CAG repeat

Source: US20080318884A1, “Methods for Altering Gene Expression and Methods of Treatment Utilizing Same” (THE UAB RESEARCH FOUNDATION, priority 2005, published 2008)
